Laboratory results taken from patent US20100160294A1 (Cypress Biosciences, Inc., priority 2008, published 2010).

Assays:
[1] = Example 4: tolerability study of mirtazapine and betahistine in normal healthy subjects; format: in vivo, human; settings: 6 weeks; 15 mg mirtazapine in the evening, 8 mg betahistine in the morning, or 8 or 16 mg betahistine + 15 mg mirtazapine
Procedure: (§1) The subjects receive 2 capsules per day, one in the morning and one at bedtime. […] All medications are administered in an over-encapsulated format that ensures blinding of study participants, staff and investigators. All subjects are scheduled to receive a total of 6 weeks of therapy, and are required to return to the clinics after 1, 2, 4 and 6 weeks of therapy. Patients are required to complete paper self-assessments, electronic diary assessments, computer based cognitive testing, as well as vital signs and weight assessments at the clinic visits.

[2] = Example 1: tolerability study of mirtazapine and reboxetine in normal healthy subjects; format: in vivo, human; settings: 6 weeks; 15 mg mirtazapine in the evening, 2 mg reboxetine in the morning, or 2 or 4 mg reboxetine + 15 mg mirtazapine
Procedure: as §1

[3] = system: 5-HT and NA reuptake sites; settings: ratio of Ki for serotonin reuptake to Ki for norepinephrine reuptake; from U.S. Pat. No. 6,642,235; cited from earlier work
[4] = cited from earlier work

Molecule	side effects [1]	side effects [2]	norepinephrine reuptake inhibitor selectivity (Ki5HT/KiNA) [3]	appetite increase reported, share of patients ([4]; controlled studies, placebo 2%) [%]	weight gain of greater than or equal to 7% of body weight, share of patients ([4]; same controlled trials, placebo 0%) [%]
CNCCc1ccccn1 [betahistine, 2-[2-(methylamino)ethyl]pyridine]	insomnia, nausea/vomiting, and weight loss	–	–	–	–
CN1CCN2c3ncccc3Cc3ccccc3C2C1 (stereo not drawn) [mirtazapine, 1,2,3,4,10,14b-hexahydro-2-methylpyrazino [2,1-a]pyrido[2,3-c]benzazepine]	weight gain, sedation, and cognitive deficits	weight gain, sedation, and cognitive deficits	–	–	–
CCOc1ccccc1OC(c1ccccc1)C1CNCCO1 (racemic) [reboxetine, 2-[(2-ethoxyphenoxy)-phenyl-methyl]morpholine]	insomnia, nausea/vomiting, and weight loss	insomnia, nausea/vomiting, and weight loss	about 80	–	–
CN(C)CCC=C1c2ccccc2CCc2ccccc21 [amitriptyline]	–	–	–	6	5.9
(S,S)reboxetine	–	–	about 12,700	–	–
